From BigSolDB 2.1

O=C(O)Cc1ccccc1[N+](=O)[O-]
solubility (mole fraction)
Details	283.15 K	288.15 K	293.15 K	298.15 K	303.15 K	308.15 K	313.15 K	318.15 K	323.15 K	328.15 K
in 1,4-dioxane	–	0.0461	0.0535	0.0618	0.0732	0.0853	0.1	0.118	0.139	0.162
in DMF	0.18	0.202	0.222	0.249	0.277	0.308	0.338	0.371	0.406	0.445
in acetonitrile	0.0143	0.016	0.0184	0.0219	0.0255	0.0304	0.0365	0.0437	0.0515	0.0604
in cyclohexane	8.88e-06	1.22e-05	1.65e-05	2.23e-05	2.94e-05	3.79e-05	4.9e-05	6.35e-05	8.34e-05	0.000108
in ethanol	0.0273	0.0317	0.0367	0.0432	0.0516	0.0627	0.0743	0.0878	0.104	0.123
in ethyl acetate	0.0285	0.0323	0.0383	0.0453	0.055	0.0651	0.0764	0.0877	0.0979	0.11
in ethylene glycol	0.0148	0.0175	0.0208	0.0245	0.0287	–	–	–	–	–
